Reference: patent US20110118353A1, “METHOD OF HORMONE SUPPRESSION IN HUMANS” (N. V. Organon, priority 2007, published 2011)

Legend:
Assay type in all cases: in vivo, human
LH [1] = assay: Experiment 1: single rising oral dose trial, serum LH (DELFIA); conditions: healthy male volunteers, single oral doses 0.5-30 mg, 0 to 12 hours post-dose, vs placebo
Experimental: (§1) A double-blind, cross-over, placebo controlled, single rising oral dose trial with compound 1 was carried out in healthy male volunteers to assess its tolerability, safety, pharmacokinetic and pharmacodynamic profile.
(§2) This was a double-blind, placebo-controlled, single rising oral dose study in 16 subjects. Each subject was assigned to one of 4 dosing groups and received 3 successive single oral doses of compound 1 and placebo in a four-way cross-over design. Subjects were male volunteers with a good physical and mental health, aged 18-45 years, body mass index […]. […]
(§3) LH and FSH were measured using a DELFIA assay. […] Testosterone was measured using a DELFIA testosterone assay; a solid phase fluoro-immuno-assay based on competition between Europium-labeled Testosterone and sample Testosterone.
(§4) Effect of treatment was characterised by calculating areas under the effect curve (AUE) over 0-4 h and 0-final assessment time periods. AUEs were calculated with the linear trapezoidal rule using protocol times. […] All measures were analysed using analysis of variance with factors subject and treatment and with the prevalue as covariate. A linear contrast on dose group was calculated with dose groups assigned in ascending order.

FSH [2] = assay: Experiment 1: single rising oral dose trial, serum FSH (DELFIA); conditions: healthy male volunteers, single oral doses 0.5-30 mg, 0-12 h period; slower than LH
Experimental: as §1, §2, §3, §4

testosterone [3] = assay: Experiment 1: single rising oral dose trial, serum testosterone (DELFIA); conditions: healthy male volunteers, single oral doses 0.5-30 mg, 0-12 h period; slower than LH
Experimental: as §1, §2, §3, §4

LH [4] = assay: Experiment 2: single-dose crossover trial, serum LH (DELFIA); conditions: healthy male volunteers, single oral doses 5, 13, 20 mg
From the text: (§5) A single-dose, double-blind, placebo-controlled, randomized, crossover trial to evaluate visual effects of compound 1 in healthy male volunteers
(§6) This was a double-blind, placebo-controlled, four-period crossover study involving the administration of three single oral doses of compound 1 and placebo in 24 healthy male subjects. For each subject the compound 1 treatments were randomized in ascending order, each treatment period was separated by at least 3 days wash-out. Subjects were male volunteers with a good physical and mental health, aged 18-45 years, body mass index 18-28 kg/m^2.
(§7) A freeze dried cake of compound 1 (Batch No CW122) was reconstituted with de-ionized water BP and subsequently diluted with gelatin/mannitol to 50 mL solution for oral administration. Dose levels of compound 1 used in this trial were: 5 mg, 13 mg and 20 mg
(§8) Serum samples for LH, FSH and testosterone analysis were taken at time points: pre-dose and 20′, 45′, 1h10′, 1h35′, 2h, 2h25′, 2h50′, 3h15′, 4h, 6h, 8h, 12h, 16h and 24h post-dose. Serum was stored at −40° C.
(§9) LH and FSH were measured using a DELFIA assay. The DELFIA LH and DELFIA FSH assays are solid phase, two-site fluoroimmunometric assays based on the direct sandwich technique. Testosterone was measured using a DELFIA testosterone assay; a solid phase fluoro-immuno-assay based on competition between Europium-labeled Testosterone and sample Testosterone.
(§10) Descriptive statistics for serum FSH, LH and testosterone concentrations were calculated, both as absolute values and as percentage of baseline. In addition the following parameters were calculated: Cmin, tmin, Cmean,0-24, both Cmin and Cmean,0-24 were expressed in absolute values and as percentage of baseline. No formal statistical analysis was done on these PD parameters. Only descriptive statistics were calculated by dose. Furthermore, summary plots of the PD parameters versus treatment were made

FSH [5] = assay: Experiment 2: single-dose crossover trial, serum FSH (DELFIA); conditions: healthy male volunteers, single oral doses 5, 13, 20 mg
From the text: as §5, §6, §7, §8, §9, §10

testosterone [6] = assay: Experiment 2: single-dose crossover trial, serum testosterone (DELFIA); conditions: healthy male volunteers, single oral doses 5, 13, 20 mg
From the text: as §5, §6, §7, §8, §9, §10

LH [7] = assay: Experiment 3: multiple oral dose study, serum LH (DELFIA); conditions: healthy male volunteers, 4, 8, 16 mg q.d. or 12 mg b.i.d. oral
From the text: (§11) A phase I, double-blind, placebo-controlled, parallel group, multiple oral dose and multiple ascending dose study with compound 1 in healthy male volunteers to assess the safety, tolerability, pharmacokinetics and pharmacodynamics of compound 1 after single, multiple and multiple ascending doses.
(§12) This was a single center, double-blind, placebo-controlled, parallel group design. A total of 40 subjects were randomized over 5 groups of 8 subjects; within each group 6 subjects received multiple oral doses of compound 1 and 2 subjects received placebo. Subjects were male volunteers with a good physical and mental health, aged 18-45 years, body mass index 18-28 kg/m^2.
(§13) Freeze dried cake of compound 1 (Batch No. CW 186) was supplied in 10 mL vials (50 mg active entity in 10 mL vials). The freeze dried cake was reconstituted with sterile de-ionized water B.P and subsequently diluted with sterile de-ionized water to a dose volume of 50 mL. […]
(§14) LH and FSH were measured using a DELFIA assay. […] Testosterone was measured using a DELFIA testosterone assay; a solid phase fluoro-immuno-assay based on competition between Europium-labeled Testosterone and sample Testosterone. […]

FSH [8] = assay: Experiment 3: multiple oral dose study, serum FSH (DELFIA); conditions: healthy male volunteers, 4, 8, 16 mg q.d. or 12 mg b.i.d. oral
From the text: as §11, §12, §13, §14

testosterone [9] = assay: Experiment 3: multiple oral dose study, serum testosterone (DELFIA)
From the text: as §11, §12
Freeze dried cake of compound 1 (Batch No. CW 186) was supplied in 10 mL vials (50 mg active entity in 10 mL vials). The freeze dried cake was reconstituted with sterile de-ionized water B.P and subsequently diluted with sterile de-ionized water to a dose volume of 50 mL. Compound 1 was administered as an oral solution (50 mL) according to the following schedule: • Group 1: a single dose of 4 mg compound 1 on day 1 followed by once daily dosing of 4 mg compound 1 on days 4 to 13 • Group 2: a single dose of 8 mg compound 1 on day 1 followed by once daily dosing of 8 mg compound 1 on days 4 to 13 • Group 3: a single dose of 16 mg compound 1 on day 1 followed by once daily dosing of 16 mg compound 1 on days 4 to 13 • Group 4: a single dose of 12 mg compound 1 on day 1, twice daily dosing of 12 mg compound 1 on days 4 to 12 followed by a single dose of 16 mg compound 1 on day 13
For group 5 a dose titration was used. In this group no samples for LH, FSH and testosterone were taken. […]
as §14

LH [10] = assay: Experiment 4: single oral dose pharmacodynamic study, serum LH (DELFIA); conditions: healthy male volunteers, single oral doses 4, 8, 16 mg
From the text: (§15) A phase I, double-blind, parallel groups, placebo-controlled, cross-over, pharmacodynamic study with compound 1 in healthy male volunteers to assess glycinergic responses in cerebro-spinal fluid and plasma after single oral doses
(§16) This was a double-blind, placebo-controlled, parallel group trial in 15 subjects, randomized to 3 parallel groups of 5 subjects each. The subjects received two single doses in a randomized cross-over design. There was an interval of at least 3 days between the drug administrations. Subjects were male volunteers with a good physical and mental health, aged 18-45 years, body mass index 18-28 kg/m^2.
(§17) A freeze dried cake of compound 1 (Batch No CW122) was reconstituted with sterile water and subsequently further diluted with orange juice to a total volume of 200 mL for oral administration. Dose levels used were: • Group 1: 8 mg compound 1 and […] • Group 2: 16 mg compound 1 and placebo • Group 3: 8 mg compound 1 and 4 mg compound 1
(§18) Serum samples for LH, FSH and testosterone analysis were taken at time points: pre-dose and 1, 2, 3, 4, 6 and 12 hours post dose. Serum was stored at −40° C.
as §3

FSH [11] = assay: Experiment 4: single oral dose pharmacodynamic study, serum FSH (DELFIA); conditions: healthy male volunteers, single oral doses 4, 8, 16 mg
From the text: as §15, §16, §17, §18, §3

testosterone [12] = assay: Experiment 4: single oral dose pharmacodynamic study, serum testosterone (DELFIA); conditions: healthy male volunteers, single oral doses 4, 8, 16 mg
From the text: as §15, §16, §17, §18, §3

[13] = 0-24 h, compared with adjusted Cmin
[14] = decrease generally largest after 16 mg

## COc1ccc2c(c1)CC[C@H](CN(C)CC(=O)O)[C@@H]2c1ccccc1.Cl [compound 1]
LH [1]
  treatment effect on LH levels (decrease): statistically significant treatment effect
FSH [2]
  FSH concentrations, linear contrast on dose: significant linear decreases with rising doses
Testosterone [3]
  testosterone concentrations, linear contrast on dose: significant linear decreases with rising doses
LH [4]
  adjusted Cmin LH: decrease with increasing active dose
  time of largest LH decrease post dose: approximately 4 h
LH [4]; [13]
  adjusted Cmean LH: decreases are smaller and less consistent
LH [4]; decreases larger at increasing doses
  LH concentrations after treatment: decrease after compound 1 treatment
FSH [5]
  adjusted Cmin FSH: decrease with increasing active dose
  effect on FSH concentrations: not clearly visible
FSH [5]; [13]
  adjusted Cmean FSH: decreases are smaller and less consistent
Testosterone [6]
  adjusted Cmin Testosterone: decrease with increasing active dose
Testosterone [6]; [13]
  adjusted Cmean testosterone: decreases are smaller and less consistent
Testosterone [6]; decreases larger at increasing doses, somewhat slower than LH
  testosterone concentrations after treatment: decrease after compound 1 treatment
LH [7]
  time of maximum decreases in LH after dosing: 2 h
LH [7]; [14]
  mean LH values: decreased following dosing
FSH [8]
  time of maximum decrease in FSH values post-dose: 6 to 12 h
FSH [8]; [14]
  mean FSH values: decreased following dosing
Testosterone [9]; healthy male volunteers, 4, 8, 16 mg q.d. or 12 mg b.i.d. oral
  time post-dose until which testosterone levels dropped: 6 to 12 h
Testosterone [9]; healthy male volunteers, 4, 8, 16 mg q.d. or 12 mg b.i.d. oral, partly circadian rhythm, afterwards back to approximately baseline
  testosterone levels after dosing: dropped sharply after dosing
Testosterone [9]; largest decreases in the 16 mg q.d. and 12 mg b.i.d groups
  magnitude of the testosterone decrease compared with placebo: generally larger following administration of compound 1
LH [10]
  LH suppression: suppressed to some extent
FSH [11]
  effect on FSH: No effect
Testosterone [12]
  testosterone suppression: suppressed to some extent
